Experimental data from ChEMBL document CHEMBL5137092, “Nostosin G and Spiroidesin B from the Cyanobacterium Dolichospermum sp. NIES-1697” (J Nat Prod, 2022).

target: Trypsin (Homo sapiens, UniProt P07477+P07478+P35030); assay: Inhibition of trypsin (unknown origin) using Nalpha-benzoyl-D/L-arginine-4-nitroanilide hydrochloride as substrate preincubated for 5 mins followed by substrate addition and measured upto 30 mins by absorbance based assay; format: protein assay

IC50	Structure (SMILES)
100 nM	N=C(N)NCCC[C@@H](C=O)NC(=O)[C@H](CCc1ccc(O)cc1)NC(=O)[C@H](O)Cc1ccc(O)cc1
> 200000 nM	N=C(N)NCCC[C@@H](CO)NC(=O)[C@H](CCc1ccc(O)cc1)NC(=O)[C@H](O)Cc1ccc(O)cc1
600 nM	CC(=O)N[C@@H](CC(C)C)C(=O)N[C@@H](CC(C)C)C(=O)N[C@H](C=O)CCCNC(=N)N [LEUPEPTIN]
